Results: patent US20070142348A1, “Microbicidal, prophylactic and therapeutic effect of ctc-96 on papilloma viruses” (REDOX PHARMACEUTICAL CORPORATION, AUDUBON […] AND […], priority 2003, published 2007)
Values joined by “and” are separate entries in the source; they are usually repeats but may differ in a detail not shown here. Equal entries are not always repeated.

Columns and labels:
[1] = tested on: HPV-11; experiment: Effect of CTC-96 on the infectivity of HPV-11 (virus incubated with CTC-96 prior to infection of foreskin fragments), human xenograft SCID mouse model; assay type: in vivo, SCID mice; settings: for Immunocytochemistry: grafts Negative for HPV (number): foreign body/fibrous counted as negative; for Histology: grafts Negative for HPV (number): foreign body reaction/fibrous tissue counted as negative; for Composite Geometric Mean Diameters (cGMD) of the Grafts, Median: 12 weeks; for Composite Geometric Mean Diameters (cGMD) of the Grafts, Mean ± SD: 12 weeks after grafting
Procedure: The effect of CTC-96™ on the infectivity of HPV-11 was evaluated in the human xenograft SCID mouse model. HPV type 11 is, with HPV-6, one of the two viruses responsible for the majority of anogenital warts in humans.
CTC-96™ in saline was incubated with HPV-11 prior to infection of human neonatal foreskin fragments. The fragments were then grafted onto SCID mice. The animals were monitored weekly. They were weighed at the time of grafting, and every other week during the 12 weeks of the experiment. There was no effect of HPV-11 treatment by CTC-96™ on the weight of the mice. The animals were sacrificed by cervical dislocation 12 weeks after graft implantation. Length, width, and height of the graft were measured and recorded. A composite geometric mean diameter (cGMD) of the grafts was calculated for each mouse. The grafts were then removed and analyzed by histology, immunocytochemistry and RT-PCR. Graft evaluation by immunocytochemistry utilized anti-common Papillomavirus antigen^4. Explanted grafts were homogenized and total RNA was extracted. HPV-11 viral cDNA was generated by nested RT-PCR.
Presence of HPV was defined by the presence of two out of three of the following features: acanthosis (an increase in the thickness of the stratum spinosum of the epidermis) koilocytosis (perinuclear vacuolation), or parakeratosis (persistence of the nuclei in the cells of the stratum corneum of the epidermis). As the CTC-96™ concentration increases the percentages of grafts containing HPV decreases, with none positive at the two higher concentrations. […] Two explanations are possible for the high number of foreign body reactions present in the grafts infected with the HPV-11 treated with the two highest concentrations of CTC-96™. The first is that CTC-96™ completely inactivated HPV-11. […] The alternate explanation is that CTC-96™ was toxic to the graft itself. This is unlikely since CTC-96™ has been used in vitro and in vivo in intravaginal preparations without associated toxicities at the concentrations used, and at the lowest concentration of CTC-96™ (0.05%), the number of grafts with a foreign body reaction was not different than that in the control group, thus toxicity would be unlikely to account for the lower number of HPV positive grafts (P=0.0 15; by Fisher exact test). Since CTC-96™ has a clear virucidal action at the lowest concentration (see Table 4), it is reasonable to assume that this virucidal action is present at higher concentrations, independent of the presence of a cytotoxic effect.
Table 4 presents the results and analysis of the HPV RT-PCR, which was performed by extracting total RNA from homogenized, explanted grafts and generating HPV-11 viral cDNA by nested RT-PCR. Using this assay, there is a strong and clear dose-response effect. Only with the highest dose of CTC-96™ is there complete obliteration of viral transcriptional activity.

[2] = tested on: Bovine Papillomavirus Type 1 (BPV-1); experiment: Inhibition of BPV-1 transformation of C127 mouse epithelial cells: exposure of virus to drug prior to infection; assay type: cell-based; settings: duplicate values
Procedure: (§1) Experiments were performed to determine if CTC-96™ can inactivate the ability of bovine papillomavirus type 1 (BPV-1) to morphologically transform C127 mouse epithelial cells in culture. Cell-free stocks of BPV-1 were treated with CTC-96™ or placebo. In order to detect the transforming ability of BPV-1, sub-confluent cultures of C127 mouse cells are infected with a standardized inoculate of BPV-1. For the positive controls, stock virus was added to the culture medium present on the cells. The presence of morphologically transformed foci was counted after 2 weeks and then again at 3 weeks. Controls included non-infected cells (with or without drug) and untreated BPV-1.
Bovine Papillomavirus Type 1 (BPV-1) was mixed with CTC-96™, incubated for 10 minutes at 37° C. and then added to the cells. It is clear that CTC-96™ can inhibit the appearance of bovine Papillomavirus type 1 (BPV-1) induced transformation of C127 mouse epithelial cells in culture (Table 9).

[3] = tested on: Bovine Papillomavirus Type 1 (BPV-1); experiment: Inhibition of BPV-1 transformation of C127 mouse epithelial cells: exposure of cells pretreated with virus to drug; assay type: cell-based; settings: CTC-96 5 μg/ml added 5 hours after virus; counted on day 12; duplicate values
Procedure: as §1
To further evaluate the time course of interaction between CTC-96™ and Papillomavirus the following experiment was performed. Virus was put on C127 mouse epithelial cells in culture at time 0 and incubated for 5 hours. Medium was then removed and replaced with medium plus drug. Cells were then re-fed every 2 days and the experiments counted on day 12.

[4] = HPV-11 treated with CTC-96 0.05%
[5] = HPV-11 treated with CTC-96 0.2%
[6] = concentration not printed in the table row (0.2% group)

CC(/C=C(/C)[O-])=NCCN=C(C)/C=C(/C)[O-].Cc1ncc[nH]1.Cc1ncc[nH]1.[Br-].[Co+3] [CTC-96]
Effect on the weight of the mice ([1]; 12 weeks of the experiment): no effect | Histology: grafts Positive for HPV (number) ([1]; CTC-96 0.05%): 4 | Histology: grafts Positive for HPV (percent) ([1]; CTC-96 0.05%): (26.7%) | Immunocytochemistry: grafts Positive for HPV (number) ([1]; CTC-96 0.05%): 2 | Immunocytochemistry: grafts Positive for HPV (percent) ([1]; CTC-96 0.05%): (12.5%) | RT-PCR: grafts HPV-11 Negative (number) ([1]; CTC-96 0.05%): 7 | RT-PCR: grafts HPV-11 Positive (number) ([1]; CTC-96 0.05%): 9 | RT-PCR: grafts HPV-11 Positive (percent) ([1]; CTC-96 0.05%): (56.2%) | Immunocytochemistry: grafts Negative for HPV (number) ([1]; CTC-96 0.05%, anti-common Papillomavirus antigen): 14 | Histology: grafts Negative for HPV (number) ([1]; CTC-96 0.05%): 11 | Histology: grafts Positive for HPV (number) ([1]; CTC-96 0.2%): 0 | Histology: grafts Positive for HPV (percent) ([1]; CTC-96 0.2%): (0%) | Immunocytochemistry: grafts Positive for HPV (number) ([1]; CTC-96 0.2%): 0 | Immunocytochemistry: grafts Positive for HPV (percent) ([1]; CTC-96 0.2%): (0%) | Histology: grafts Negative for HPV (number) ([1]; CTC-96 0.2%): 12 | Immunocytochemistry: grafts Negative for HPV (number) ([1]; CTC-96 0.2%): 12 | Histology: grafts Positive for HPV (number) ([1]; CTC-96 1%): 0 | Histology: grafts Positive for HPV (percent) ([1]; CTC-96 1%): (0%) | Immunocytochemistry: grafts Positive for HPV (number) ([1]; CTC-96 1%): 0 | Immunocytochemistry: grafts Positive for HPV (percent) ([1]; CTC-96 1%): (0%) | RT-PCR: grafts HPV-11 Negative (number) ([1]; CTC-96 1%): 15 | RT-PCR: grafts HPV-11 Positive (number) ([1]; CTC-96 1%): 0 | RT-PCR: grafts HPV-11 Positive (percent) ([1]; CTC-96 1%): (0%) | Histology: grafts Negative for HPV (number) ([1]; CTC-96 1%): 16 | Immunocytochemistry: grafts Negative for HPV (number) ([1]; CTC-96 1%): 17 | Composite Geometric Mean Diameters (cGMD) of the Grafts, Median [1, 4]: 2.01 mm | Composite Geometric Mean Diameters (cGMD) of the Grafts, Mean ± SD [1, 4]: 2.02 ± 0.179 mm | Composite Geometric Mean Diameters (cGMD) of the Grafts, Median [1, 5]: 1.88 mm | Composite Geometric Mean Diameters (cGMD) of the Grafts, Mean ± SD [1, 5]: 1.86 ± 0.196 mm | Composite Geometric Mean Diameters (cGMD) of the Grafts, Median ([1]; HPV-11 treated with CTC-96 1%): 1.94 mm | Composite Geometric Mean Diameters (cGMD) of the Grafts, Mean ± SD ([1]; HPV-11 treated with CTC-96 1%): 1.95 ± 0.139 mm | RT-PCR: grafts HPV-11 Negative (number) [1, 6]: 5 | RT-PCR: grafts HPV-11 Positive (percent) [1, 6]: (28.6%) | Virucidal effect on HPV-11 ([1]; highest concentration of CTC-96 (1%)): completely virucidal | Effect on the animals' mortality or weight gain ([1]; mouse, in vivo): no effect | Number of Transformed Foci at 3 weeks ([2]; CTC-96 0.1 mg/ml mixed with BPV-1, 10 minutes at 37° C.): 68 and 80 | Number of Transformed Foci at 3 weeks ([2]; CTC-96 0.2 mg/ml mixed with BPV-1, 10 minutes at 37° C.): 80 and 82 | Number of Transformed Foci at 3 weeks ([2]; CTC-96 0.5 mg/ml mixed with BPV-1, 10 minutes at 37° C.): 25 and 40 | Number of Transformed Foci, Exp. 1 [3]: 3 and 2 | Number of Transformed Foci, Exp. 2 [3]: 3
